Each structure is given as a SMILES string. Several values for one entry are separate records, joined by “and”; a condition that tells them apart may be missing. Equal entries are not always repeated. Toxic doses and inconclusive results are not listed.

For the assay, the system named is L1210 leukemia ip in BDF1 mice, survival T/C. Description: NCI In Vivo Anticancer Drug Screen. Data for tumor model L1210 Leukemia (intraperitoneal) in B6D2F1 (BDF1) mice. To be noted: endpoint: mean survival time, higher = longer survival. The method in brief:
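In this screen, tumor-bearing mice given compound are compared to those given vehicle, and their survival values are reported as a treated-to-control quotient.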

The mark [1] stands for this setting: dose: 100.0 mg/kg/injection, schedule: Q01DX009 (ip), vehicle: Klucel (hydroxypropylcellulose) (HPC).
The mark [2] stands for this setting: dose: 100.0 mg/kg/injection, schedule: Q04DX003 (ip), vehicle: Klucel (hydroxypropylcellulose) (HPC).
[3] abbreviates: dose: 200.0 mg/kg/injection, schedule: Q01DX009 (ip), vehicle: Klucel (hydroxypropylcellulose) (HPC).
The mark [4] stands for this setting: dose: 200.0 mg/kg/injection, schedule: Q04DX003 (ip), vehicle: Klucel (hydroxypropylcellulose) (HPC).
Where [5] appears, read: dose: 400.0 mg/kg/injection, schedule: Q01DX009 (ip), vehicle: Klucel (hydroxypropylcellulose) (HPC).
Setting [6] is: dose: 400.0 mg/kg/injection, schedule: Q04DX003 (ip), vehicle: Klucel (hydroxypropylcellulose) (HPC).

Take `CC(=O)Nc1ccc2nc3ccc(NC(C)=O)cc3[n+](-c3ccccc3)c2c1`: the T/C runs as follows: (dose: 0.25 mg/kg/injection, schedule: Q01DX Z (ip), vehicle: methylcellulose (MC)) 105 % of control; (dose: 0.5 mg/kg/injection, schedule: Q01DX Z (ip), vehicle: methylcellulose (MC)) 121 % of control; (dose: 0.75 mg/kg/injection, schedule: Q01DX009 (ip), vehicle: saline) 111 % of control; (dose: 1.25 mg/kg/injection, schedule: Q#A X Z (ip), vehicle: saline) 89 % of control; (dose: 1.5 mg/kg/injection, schedule: Q01DX009 (ip), vehicle: saline) 114 % of control; (dose: 2.5 mg/kg/injection, schedule: Q01DX Z (ip), vehicle: saline) 98 % of control. For the same molecule, the T/C was 109 % of control (dose: 2.5 mg/kg/injection, schedule: Q#A X Z (ip), vehicle: saline); 122 % of control (dose: 3.0 mg/kg/injection, schedule: Q01DX009 (ip), vehicle: saline); 105 % of control (dose: 4.4 mg/kg/injection, schedule: Q07DX Z (ip), vehicle: saline); 118 % of control (dose: 5.0 mg/kg/injection, schedule: Q01DX Z (ip), vehicle: saline); 123 % of control (dose: 5.0 mg/kg/injection, schedule: Q#A X Z (ip), vehicle: saline); 120 % of control (dose: 6.0 mg/kg/injection, schedule: Q01DX009 (ip), vehicle: saline). For the same molecule, the T/C is 111 % of control (dose: 7.5 mg/kg/injection, schedule: Q03DX Z (ip), vehicle: saline); 110 % of control (dose: 8.8 mg/kg/injection, schedule: Q07DX Z (ip), vehicle: saline); 97 % of control (dose: 10.0 mg/kg/injection, schedule: Q01DX009 (sc), vehicle: propolene glycol); 152 % of control (dose: 10.0 mg/kg/injection, schedule: Q01DX015 (ip), vehicle: propolene glycol); 150 % of control (dose: 12.5 mg/kg/injection, schedule: Q01DX Z (ip), vehicle: methylcellulose (MC)); 118 % of control (dose: 15.0 mg/kg/injection, schedule: Q03DX Z (ip), vehicle: saline). The T/C by setting is: (dose: 17.5 mg/kg/injection, schedule: Q07DX Z (ip), vehicle: saline) 115 % of control; (dose: 20.0 mg/kg/injection, schedule: Q01DX010 (sc), vehicle: propolene glycol) 96 % of control; (dose: 20.0 mg/kg/injection, schedule: Q01DX Z (ip), vehicle: saline) 123 % of control; (dose: 20.0 mg/kg/injection, schedule: Q#A X Z (ip), vehicle: saline) 180 % of control; (dose: 25.0 mg/kg/injection, schedule: Q01DX Z (ip), vehicle: methylcellulose (MC)) 166 % of control; (dose: 31.25 mg/kg/injection, schedule: Q01DX009 (ip), vehicle: saline) 164 % of control. For the same molecule, the T/C is, setting by setting: (dose: 31.3 mg/kg/injection, schedule: Q01DX009 (ip), vehicle: saline) 161 % of control; (dose: 40.0 mg/kg/injection, schedule: Q01DX010 (sc), vehicle: propolene glycol) 102 % of control; (dose: 40.0 mg/kg/injection, schedule: Q01DX015 (ip), vehicle: propolene glycol) 172 % of control; (dose: 40.0 mg/kg/injection, schedule: Q01DX Z (ip), vehicle: saline) 172 % of control; (dose: 50.0 mg/kg/injection, schedule: Q01DX009 (ip), vehicle: saline) 162 % of control; (dose: 50.0 mg/kg/injection, schedule: Q01DX Z (ip), vehicle: methylcellulose (MC)) 100 % of control. In addition, the T/C is, setting by setting: (dose: 64.0 mg/kg/injection, schedule: Q01DX010 (iv), vehicle: saline) 97 % of control; (dose: 80.0 mg/kg/injection, schedule: Q01DX009 (oral), vehicle: propolene glycol) 98 % of control; (dose: 80.0 mg/kg/injection, schedule: Q01DX009 (sc), vehicle: propolene glycol) 95 % of control; (dose: 100.0 mg/kg/injection, schedule: Q01DX009 (ip), vehicle: saline) 206 % of control; (dose: 120.0 mg/kg/injection, schedule: Q01DX009 (oral), vehicle: propolene glycol) 98 % of control; (dose: 120.0 mg/kg/injection, schedule: Q03DX Z (ip), vehicle: saline) 159 % of control. Moreover, the T/C (dose: 128.0 mg/kg/injection, schedule: Q01DX010 (iv), vehicle: saline) was 102 % of control; the T/C (dose: 175.0 mg/kg/injection, schedule: Q01DX001 (ip), vehicle: saline) is 105 % of control; the T/C (dose: 222.0 mg/kg/injection, schedule: Q01DX Z (oral), vehicle: saline) was 116 % of control; the T/C (dose: 256.0 mg/kg/injection, schedule: Q01DX010 (iv), vehicle: saline) is 108 % of control; the T/C (dose: 265.0 mg/kg/injection, schedule: Q01DX001 (ip), vehicle: saline) was 108 % of control; the T/C (dose: 270.0 mg/kg/injection, schedule: Q01DX009 (oral), vehicle: propolene glycol) was 98 % of control. Also, the T/C reads like this: (dose: 333.0 mg/kg/injection, schedule: Q01DX Z (oral), vehicle: saline) 120 % of control; (dose: 405.0 mg/kg/injection, schedule: Q01DX009 (oral), vehicle: propolene glycol) 102 % of control; (dose: 480.0 mg/kg/injection, schedule: Q03DX Z (ip), vehicle: saline) 112 % of control; (dose: 960.0 mg/kg/injection, schedule: Q03DX Z (ip), vehicle: saline) 86 % of control.
For the molecule `Cc1ncc(C(O)c2ccc(N(C)C)cc2)n1Cc1ccccc1` (configuration not stated), the T/C reads like this: (dose: 100.0 mg/kg/injection, schedule: Q01DX001 (ip), vehicle: Klucel (hydroxypropylcellulose) (HPC)) 95 % of control; under setting [1], 100 % of control and 104 % of control; (dose: 100.0 mg/kg/injection, schedule: Q04DX002 (ip), vehicle: Klucel (hydroxypropylcellulose) (HPC)) 111 % of control; under setting [2], 103 % of control; (dose: 200.0 mg/kg/injection, schedule: Q01DX001 (ip), vehicle: Klucel (hydroxypropylcellulose) (HPC)) 95 % of control; under setting [3], 103 % of control and 115 % of control. In addition, the T/C (dose: 200.0 mg/kg/injection, schedule: Q04DX002 (ip), vehicle: Klucel (hydroxypropylcellulose) (HPC)) was 94 % of control and 115 % of control; the T/C under setting [4] is 105 % of control; the T/C (dose: 400.0 mg/kg/injection, schedule: Q01DX001 (ip), vehicle: Klucel (hydroxypropylcellulose) (HPC)) is 89 % of control; the T/C under setting [5] was 88 % of control; the T/C (dose: 400.0 mg/kg/injection, schedule: Q04DX002 (ip), vehicle: Klucel (hydroxypropylcellulose) (HPC)) is 98 % of control and 99 % of control; the T/C under setting [6] was 103 % of control.
Consider `O=C(CS(=O)(=O)C/C(=N\Nc1ccc([N+](=O)[O-])cc1)c1ccccc1)c1ccccc1`, for which the T/C reads like this: (dose: 100.0 mg/kg/injection, schedule: Q04DX003 (ip), vehicle: saline) 101 % of control; (dose: 200.0 mg/kg/injection, schedule: Q04DX003 (ip), vehicle: saline) 113 % of control; (dose: 400.0 mg/kg/injection, schedule: Q04DX003 (ip), vehicle: saline) 104 % of control.
As to `O=C(NCCF)NC1CS(=O)(=O)CS(=O)(=O)C1`, the T/C by setting is: (dose: 9.5 mg/kg/injection, schedule: Q01DX001 (ip), vehicle: other) 100 % of control; (dose: 19.0 mg/kg/injection, schedule: Q01DX001 (ip), vehicle: other) 105 % of control; (dose: 38.0 mg/kg/injection, schedule: Q01DX001 (ip), vehicle: other) 96 % of control.
For `CCOC(=O)C(C)C1CCCc2c(C)ccc(C)c21` (configuration not stated), the T/C is 100 % of control under setting [1]; 98 % of control under setting [2]; 102 % of control under setting [3]; 92 % of control under setting [4]; 93 % of control under setting [5]; 98 % of control under setting [6].
For `O=C(O)c1cc(I)c(I)c(I)c1`, the T/C (dose: 100.0 mg/kg/injection, schedule: Q04DX003 (ip), vehicle: saline with Tween-80) is 97 % of control and the T/C (dose: 200.0 mg/kg/injection, schedule: Q04DX003 (ip), vehicle: saline with Tween-80) was 101 % of control.

The values above are taken from PubChem BioAssay AID248 (DTP/NCI, 2004).
